# Laboratory results as given in PubChem BioAssay (NCI).
#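 96-well plates; 48 h exposure; 5 concentrations. Endpoints by linear interpolation between flanking doses. Not reached: highest tested concentration assigned. GI50: concentration for 50% inhibition of growth. The concentration for full growth arrest is given as TGI.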
# Experiments:
# Assay in all cases: NCI anticancer screen, dose series, 48 h
# [1] = test system: 786-0 renal
# [2] = test system: A498 renal
# [3] = test system: A549 NSCLC
# [4] = test system: ACHN renal
# [5] = test system: BT-549 breast
# [6] = test system: CAKI-1 renal
# [7] = test system: CCRF-CEM leukemia
# [8] = test system: COLO 205 colon
# [9] = test system: DU-145 prostate
# [10] = test system: EKVX NSCLC
# [11] = test system: HCC-2998 colon
# [12] = test system: HCT-116 colon
# [13] = test system: HCT-15 colon
# [14] = test system: HL-60(TB) leukemia
# [15] = test system: HOP-62 NSCLC
# [16] = test system: HOP-92 NSCLC
# [17] = test system: HS 578T breast
# [18] = test system: HT29 colon
# [19] = test system: IGROV1 ovarian
# [20] = test system: K-562 leukemia
# [21] = test system: KM12 colon
# [22] = test system: LOX IMVI melanoma
# [23] = test system: M14 melanoma
# [24] = test system: MALME-3M melanoma
# [25] = test system: MCF7 breast
# [26] = test system: MDA-MB-231 breast
# [27] = test system: MDA-MB-435
# [28] = test system: MOLT-4 leukemia
# [29] = test system: NCI-H226 lung
# [30] = test system: NCI-H23 lung
# [31] = test system: NCI-H460 lung
# [32] = test system: NCI-H522 lung
# [33] = test system: NCI/ADR-RES ovarian
# [34] = test system: OVCAR-3 ovarian
# [35] = test system: OVCAR-4 ovarian
# [36] = test system: OVCAR-5 ovarian
# [37] = test system: OVCAR-8 ovarian
# [38] = test system: PC-3 prostate
# [39] = test system: RPMI-8226 leukemia
# [40] = test system: RXF 393 renal
# [41] = test system: SF-268 CNS
# [42] = test system: SF-295 CNS
# [43] = test system: SF-539 CNS
# [44] = test system: SK-MEL-2 melanoma
# [45] = test system: SK-MEL-28 melanoma
# [46] = test system: SK-MEL-5 melanoma
# [47] = test system: SK-OV-3 ovarian
# [48] = test system: SN12C renal
# [49] = test system: SNB-19 CNS
# [50] = test system: SNB-75 CNS
# [51] = test system: SR leukemia
# [52] = test system: SW-620 colon
# [53] = test system: T-47D breast
# [54] = test system: TK-10 renal
# [55] = test system: U251 CNS
# [56] = test system: UACC-257 melanoma
# [57] = test system: UACC-62 melanoma
# [58] = test system: UO-31 renal
smiles,measurement,setting,value
CC/C=C/C/C=C/C/C=C/C/C=C/C/C=C/C/C=C/CCC(=O)Nc1ccn([C@@H]2O[C@H](CO)[C@@H](O)C2(F)F)c(=O)n1,GI50,[1],14.1 nM
same,TGI,[1],25.5 µM
same,GI50,[2],56.6 nM
same,TGI,[2],44.4 µM
same,GI50,[3],36.9 nM
same,TGI,[3],20.4 µM
same,GI50,[4],< 13.2 nM
same,TGI,[4],14.6 µM
same,GI50,[5],681 nM
same,TGI,[5],19.8 µM
same,GI50,[6],34.1 nM
same,TGI,[6],14.8 µM
same,GI50,[7],53.7 nM
same,TGI,[7],15.1 µM
same,GI50,[8],187 nM
same,TGI,[8],19.1 µM
same,GI50,[9],43 nM
same,TGI,[9],24.9 µM
same,GI50,[10],6.14 µM
same,TGI,[10],> 58.9 µM
same,GI50,[11],14.9 µM
same,TGI,[11],> 64.4 µM
same,GI50,[12],87.3 nM
same,TGI,[12],29.8 µM
same,GI50,[13],1820 nM
same,TGI,[13],41.3 µM
same,GI50,[14],59 nM
same,TGI,[14],9.24 µM
same,GI50,[15],29.3 nM
same,TGI,[15],6.55 µM
same,GI50,[16],652 nM
same,TGI,[16],30.5 µM
same,GI50,[17],46.4 µM
same,TGI,[17],> 76.9 µM
same,GI50,[18],138 nM
same,TGI,[18],19.5 µM
same,GI50,[19],4.07 µM
same,TGI,[19],30.7 µM
same,GI50,[20],160 nM
same,TGI,[20],33.4 µM
same,GI50,[21],1420 nM
same,TGI,[21],39.8 µM
same,GI50,[22],51.2 nM
same,TGI,[22],832 nM
same,GI50,[23],30.3 nM
same,TGI,[23],212 nM
same,GI50,[24],9.33 µM
same,TGI,[24],24.2 µM
same,TGI,[25],17.2 µM
same,GI50,[26],7.65 µM
same,TGI,[26],28.9 µM
same,GI50,[27],200 nM
same,TGI,[27],17.5 µM
same,GI50,[28],80.2 nM
same,TGI,[28],3.55 µM
same,GI50,[29],228 nM
same,TGI,[29],12.1 µM
same,GI50,[30],19 nM
same,TGI,[30],9.3 µM
same,GI50,[31],19.9 nM
same,TGI,[31],12.1 µM
same,GI50,[32],261 nM
same,TGI,[32],37.7 µM
same,GI50,[33],38.6 nM
same,TGI,[33],16.9 µM
same,GI50,[34],4.79 µM
same,TGI,[34],25.5 µM
same,GI50,[35],17.5 µM
same,TGI,[35],65.5 µM
same,GI50,[36],2830 nM
same,TGI,[36],> 60.8 µM
same,GI50,[37],34.5 nM
same,TGI,[37],9.55 µM
same,GI50,[38],6.65 µM
same,TGI,[38],52.3 µM
same,GI50,[39],245 nM
same,TGI,[39],39 µM
same,GI50,[40],169 nM
same,TGI,[40],18.3 µM
same,GI50,[41],63.1 nM
same,TGI,[41],26.3 µM
same,GI50,[42],110 nM
same,TGI,[42],19.8 µM
same,GI50,[43],42.5 nM
same,TGI,[43],5.71 µM
same,GI50,[44],35.9 µM
same,TGI,[44],> 66.8 µM
same,GI50,[45],11.5 µM
same,TGI,[45],25.8 µM
same,GI50,[46],348 nM
same,TGI,[46],17.8 µM
same,GI50,[47],140 nM
same,TGI,[47],> 52.2 µM
same,GI50,[48],126 nM
same,TGI,[48],8.78 µM
same,GI50,[49],27.8 nM
same,TGI,[49],26.6 µM
same,GI50,[50],863 nM
same,TGI,[50],> 50.1 µM
same,GI50,[51],38.7 nM
same,TGI,[51],8.3 µM
same,GI50,[52],148 nM
same,TGI,[52],47.6 µM
same,GI50,[53],174 nM
same,TGI,[53],54.4 µM
same,GI50,[54],39.1 µM
same,TGI,[54],> 66.5 µM
same,GI50,[55],33.1 nM
same,TGI,[55],18.2 µM
same,GI50,[56],5.05 µM
same,TGI,[56],46.4 µM
same,GI50,[57],49.9 nM
same,TGI,[57],11.9 µM
same,GI50,[58],48.6 nM
same,TGI,[58],4.28 µM
